Consider one compound from ChEMBL document CHEMBL4257490, “Development of a peptide-based bifunctional chelator conjugated to a cytotoxic drug for the treatment of melanotic melanoma” (Medchemcomm, 2018).

The logP is a log measure of how a compound divides between an organic and an aqueous phase.

Data set [1] is described as follows: Drug uptake in intestine of Balb/c mouse allografted with mouse B16F10 cells using 99mTc(CO)3-labeled compound at 10 to 12 MBq/kg, iv measured at 4 hrs. Type of data set: ADME, organism-based. As to conditions: in vivo; call rule not given here.
Data set [2] in a line: Stability in saline assessed as parent compond remaining using 99mTc(CO)3-labeled compound after 24 hrs by TLC method. As to conditions: read-out: Stability. Type of data set: physicochemical.
Data set [3] is described as follows: Drug uptake in blood of Balb/c mouse allografted with mouse B16F10 cells using 99mTc(CO)3-labeled compound at 10 to 12 MBq/kg, iv measured at 4 hrs. Format: ADME, organism-based. The settings on record: in vivo.
Data set [4] in a line: Drug uptake in urinary bladder of Balb/c mouse allografted with mouse B16F10 cells using 99mTc(CO)3-labeled compound at 4 to 8 MBq, iv measured at 4 hrs by scintigraphic imaging method. Type of data set: ADME, organism-based. As to conditions: in vivo.
Data set [5] in a line: Drug uptake in tumor muscle of Balb/c mouse allografted with mouse B16F10 cells using 99mTc(CO)3-labeled compound at 10 to 12 MBq/kg, iv measured at 2 hrs. Format: ADME, organism-based. As to conditions: in vivo.
A short description of data set [6]: Drug uptake in liver of Balb/c mouse allografted with mouse B16F10 cells using 99mTc(CO)3-labeled compound at 4 to 8 MBq, iv measured at 4 hrs by scintigraphic imaging method. As to conditions: in vivo. Format: ADME, organism-based.
A short description of data set [7]: Drug uptake in tumor muscle of Balb/c mouse allografted with mouse B16F10 cells using 99mTc(CO)3-labeled compound at 10 to 12 MBq/kg, iv measured at 4 hrs. As to conditions: in vivo. Format: ADME, organism-based.
The nature of data set [8]: Drug uptake in spleen of Balb/c mouse allografted with mouse B16F10 cells using 99mTc(CO)3-labeled compound at 10 to 12 MBq/kg, iv measured at 2 hrs. Type of data set: ADME, organism-based. As to conditions: in vivo.
A short description of data set [9]: Drug uptake in heart of Balb/c mouse allografted with mouse B16F10 cells using 99mTc(CO)3-labeled compound at 10 to 12 MBq/kg, iv measured at 4 hrs. Type of data set: ADME, organism-based. The settings on record: in vivo.
Data set [10] can be described thus: Hemolytic activity in rat erythrocytes up to 50 uM after 1 hr relative to control. Type of data set: ADME, cell-based, Erythrocyte. As to conditions: read-out: Activity.
A short description of data set [11]: Drug uptake in intestine of Balb/c mouse allografted with mouse B16F10 cells using 99mTc(CO)3-labeled compound at 10 to 12 MBq/kg, iv measured at 2 hrs. As to conditions: in vivo. Type of data set: ADME, organism-based.
Data set [12] is described as follows: Drug uptake in kidney of Balb/c mouse allografted with mouse B16F10 cells using 99mTc(CO)3-labeled compound at 4 to 8 MBq, iv measured at 4 hrs by scintigraphic imaging method. Type of data set: ADME, organism-based. As to conditions: in vivo.
A short description of data set [13]: Drug uptake in spleen of Balb/c mouse allografted with mouse B16F10 cells using 99mTc(CO)3-labeled compound at 10 to 12 MBq/kg, iv measured at 4 hrs. Format: ADME, organism-based. As to conditions: in vivo.
A short description of data set [14]: n-Octanol-phosphate buffer partition co-efficient, log P of 99mTc(CO)3-labeled compound at 2 to 3 KBq after 1 min by gamma scintillation counting method. Type of data set: physicochemical.
A short description of data set [15]: Drug uptake in lung of Balb/c mouse allografted with mouse B16F10 cells using 99mTc(CO)3-labeled compound at 10 to 12 MBq/kg, iv measured at 2 hrs. As to conditions: in vivo. Format: ADME, organism-based.
Data set [16] in a line: Drug uptake in liver of Balb/c mouse allografted with mouse B16F10 cells using 99mTc(CO)3-labeled compound at 10 to 12 MBq/kg, iv measured at 4 hrs. Type of data set: ADME, organism-based. The settings on record: in vivo.
Data set [17] in a line: Drug uptake in urine of Balb/c mouse allografted with mouse B16F10 cells using 99mTc(CO)3-labeled compound at 10 to 12 MBq/kg, iv measured at 4 hrs. Type of data set: ADME, organism-based. The settings on record: in vivo.

Residues, ends and D or L forms follow the SMILES beside them. *: point of attachment. X1 = O=c1nc(N*)ccn1[C@@H]1O[C@H](CO)[C@@H](O)C1(F)F

As for `NCCCC[C@H](NC(=O)CNC(=O)[C@H](Cc1cnc[nH]1)NC(=O)[C@H](CCCCN)NC(=O)[C@H](Cc1ccc(O)cc1)NC(=O)[C@@H](N)Cc1cnc[nH]1)C(=O)N[C@@H](CC(=O)Nc1ccn([C@@H]2O[C@H](CO)[C@@H](O)C2(F)F)c(=O)n1)C(N)=O` (H-HYKHGKD(X1)-NH2), the Drug uptake in [1] is reported as 6.28 % ID/g; in data set [3], 1.58 %ID/ml; in [4], “Active”; in data set [5], 1.71 % ID/g; in data set [6] it was “Active”; in data set [7] it was 2.81 % ID/g. The Drug uptake in data set [8] is 0.69 % ID/g; in data set [9] it was 0.04 % ID/g; in [11], 8.51 % ID/g; in [12] it was “Active”; in data set [13], 0.45 % ID/g; in data set [15], 0.4 % ID/g. In addition, the values for the Drug uptake in data set [16] and in data set [17] were 15.62 % ID/g and 48.21 %ID/ml, respectively. In data set [2], the remaining at 24 h is no less than 92%. Besides, in data set [10], the hemolysis at 1 h lay within 5 to 6%. This compound also returned a logP at 1 min in data set [14] of -0.629.
